This note sets out measurements from PubChem BioAssay AID651618 (Broad Institute, 2012).

Activity calls are given as the source filed them. The rule behind the calls is not given here.

System in one assay: not listed separately
The assay is described as follows: replicating M. tuberculosis growth inhibition, dose response, counter-screen, dry powder, IC90 (AID 651618). Conditions: M. tuberculosis replicating log phase, growth inhibition.
As for `FC1(F)CN(CCSc2nnc(-c3ccccc3)o2)C1`, the outcome was inactive.

As to `c1ccc(-c2nnc(SCc3ncco3)o2)cc1`, the outcome was inactive.

In the case of `FC(F)(F)Oc1ccc(CSc2nnc(-c3ccccc3)o2)cc1`, the outcome was inactive.

Take `N#Cc1ccccc1CSc1nnc(-c2ccccc2)o1`: the outcome was inactive.

`Cc1ccc(CSc2nnc(-c3ccccc3)o2)cc1`: the outcome was inactive.

Regarding `c1ccc(-c2nnc(SCCN3CCCC3)o2)cc1`, the outcome was inactive.

`c1ccc(CNCCSc2nnc(-c3ccccc3)o2)cc1`: the outcome was inactive.

With `CS(=O)(=O)c1cccc(CSc2nnc(-c3ccccc3)o2)c1`, the outcome was inactive.

As to `Fc1ccc(CSc2nnc(-c3ccccc3)o2)cc1`, the result was inactive.

Consider `c1ccc(CSc2ncc(-c3ccccc3)o2)cc1`, for which the result was inactive.

On to `c1ccc(-c2nnc(SCc3cscn3)o2)cc1`, for which the result was inactive.

For the compound `Clc1cccc(CSc2nnc(-c3ccccc3)o2)c1`, the outcome was inactive.

With `CC1(O)CN(CCSc2nnc(-c3ccccc3)o2)C1`, the result was inactive.

Consider `CS(=O)(=O)c1cccc(-c2nnc(SCc3ccccc3)o2)c1`, for which the outcome was inactive.

For the compound `Fc1ccc(-c2nnc(SCc3ccccc3)o2)cc1`, the result was inactive.

Turning to `FC(F)(F)c1ccccc1-c1nnc(SCc2ccccc2)o1`, the outcome was inactive.

Regarding `CN(Cc1ccccc1)c1nnc(-c2ccccc2)o1`, the outcome was inactive.

`Clc1ccc(-c2nnc(SCc3ccccc3)o2)cc1`: the result was inactive.

As to `Clc1ccc(CSc2nnc(-c3ccccc3)o2)cc1`, the outcome was inactive.

For `CS(=O)(=O)c1ccc(CSc2nnc(-c3ccccc3)o2)cc1`, the result was inactive.

As for `FC(F)(F)Oc1ccccc1-c1nnc(SCc2ccccc2)o1`, the outcome was inactive.

For the compound `Fc1cccc(-c2nnc(SCc3ccccc3)o2)c1`, the result was inactive.

Take `COc1ccc(-c2nnc(SCc3ccc(Cl)cc3)o2)cc1`: the result was inactive.

As to `CS(=O)(=O)c1ccc(-c2nnc(SCc3ccccc3)o2)cc1`, the result was inactive.

Turning to `c1ccc(CSc2nnc(-c3ccco3)o2)cc1`, the outcome was inactive.

Take `FC(F)(F)CNCCSc1nnc(-c2ccccc2)o1`: the result was inactive.

Consider `Clc1ccccc1-c1nnc(SCc2ccccc2)o1`, for which the outcome was inactive.

Consider `FC(F)(F)Oc1cccc(CSc2nnc(-c3ccccc3)o2)c1`, for which the result was inactive.

With `CS(=O)(=O)c1ccccc1CSc1nnc(-c2ccccc2)o1`, the result was inactive.

Consider `O=C(Cc1ccccc1)C(C(=O)c1nnc(-c2ccccc2)o1)c1ccccc1` (stereo unspecified), for which the outcome was inactive.

As for `FC(F)(F)c1ccc(CSc2nnc(-c3ccccc3)o2)cc1`, the result was inactive.

As to `N#Cc1cccc(-c2nnc(SCc3ccccc3)o2)c1`, the result was inactive.

For the compound `FC(F)(F)c1cccc(-c2nnc(SCc3ccccc3)o2)c1`, the outcome was inactive.

Take `c1ccc(CSc2nnc(-c3cc4ccccc4o3)o2)cc1`: the result was inactive.

Turning to `c1ccc(-c2ccc(CSc3nnc(-c4ccccc4)o3)cc2)cc1`, the result was inactive.

Regarding `c1ccc(CSc2nnc(-c3cscn3)o2)cc1`, the result was inactive.

For `c1ccc(CSc2nnc(-c3ccc(-c4ccccc4)cc3)o2)cc1`, the result was inactive.

In the case of `FC(F)(F)Oc1ccccc1CSc1nnc(-c2ccccc2)o1`, the result was inactive.

In the case of `FC(F)(F)Oc1ccc(-c2nnc(SCc3ccccc3)o2)cc1`, the outcome was inactive.

As to `c1ccc(-c2nnc(SC(c3ccccc3)c3ccccc3)o2)cc1`, the result was inactive.

For the compound `c1ccc(-c2nnc(SCCN3CCOCC3)o2)cc1`, the result was inactive.

As to `c1ccc(CSc2nnc(-c3ccccn3)o2)cc1`, the outcome was inactive.

Consider `FC(F)(F)c1ccccc1CSc1nnc(-c2ccccc2)o1`, for which the result was inactive.

In the case of `Clc1cccc(-c2nnc(SCc3ccccc3)o2)c1`, the result was inactive.

For `Cc1ccccc1-c1nnc(SCc2ccccc2)o1`, the outcome was inactive.

With `COc1ccc(CSc2nnc(-c3ccccc3)o2)cc1`, the result was inactive.

`c1ccc(CSc2nnc(-c3ccccc3)s2)cc1`: the outcome was inactive.

In the case of `Cc1cccc(-c2nnc(SCc3ccccc3)o2)c1`, the result was inactive.

With `COc1ccc(-c2nnc(SCc3ccccc3)o2)cc1`, the outcome was inactive.

With `CS(=O)(=O)c1ccccc1-c1nnc(SCc2ccccc2)o1`, the result was inactive.

With `O=C(Cc1ccccc1)c1nnc(-c2ccccc2)o1`, the result was inactive.

Regarding `Brc1ccc(CSc2nnc(-c3ccccc3)o2)cc1`, the result was inactive.

Consider `N#Cc1ccc(-c2nnc(SCc3ccccc3)o2)cc1`, for which the outcome was inactive.

`c1ccc(CSc2nnc(-c3ccncc3)o2)cc1`: the result was inactive.

Turning to `CN(C)CCSc1nnc(-c2ccccc2)o1`, the outcome was inactive.

As for `N#Cc1cccc(CSc2nnc(-c3ccccc3)o2)c1`, the outcome was inactive.

Take `Fc1ccccc1-c1nnc(SCc2ccccc2)o1`: the outcome was inactive.

As for `c1ccc(CNc2nnc(-c3ccccc3)o2)cc1`, the result was inactive.

On to `c1ccc(CCc2nnc(-c3ccccc3)o2)cc1`, for which the outcome was inactive.

With `N#Cc1ccc(CSc2nnc(-c3ccccc3)o2)cc1`, the outcome was inactive.

Consider `Cc1nnc(SCc2ccccc2)o1`, for which the result was inactive.

For the compound `Clc1ccccc1CSc1nnc(-c2ccccc2)o1`, the result was inactive.

With `Cc1ccccc1CSc1nnc(-c2ccccc2)o1`, the outcome was inactive.

Consider `FC(F)(F)c1ccc(-c2nnc(SCc3ccccc3)o2)cc1`, for which the outcome was inactive.

Turning to `c1ccc(CSc2nnc(Cc3ccccc3)o2)cc1`, the outcome was inactive.

Consider `c1ccc(CSc2nnc(-c3cnco3)o2)cc1`, for which the outcome was inactive.

On to `COc1ccccc1CSc1nnc(-c2ccccc2)o1`, for which the outcome was inactive.

The test system of another assay is M. tuberculosis replicating log phase, growth inhibition. The description is as above.
Settings: not given
The IC90 is the point of the concentration-response curve where the effect stands at 90%. `c1ccc(CCc2nnc(SCc3ccccc3)o2)cc1`: the IC90 is 250 µM.

Consider `c1ccc(-c2nnc(SCCN3CCN(c4ccccc4)CC3)o2)cc1`, for which the IC90 is 125 µM.

In the case of `FC1(F)CCN(CCSc2nnc(-c3ccccc3)o2)CC1`, the IC90 is 250 µM.

As to `Fc1ccccc1CSc1nnc(-c2ccccc2)o1`, the IC90 was 250 µM.

For `c1ccc(CSc2nnc(C3CCCCC3)o2)cc1`, the IC90 is 250 µM.

For `Cc1cccc(CSc2nnc(-c3ccccc3)o2)c1`, the IC90 is 250 µM.

Take `Cc1ccc(-c2nnc(SCc3ccccc3)o2)cc1`: the IC90 was 125 µM.

Turning to `COc1cccc(-c2nnc(SCc3ccccc3)o2)c1`, the 90% effect concentration (IC90) was 250 µM.

Consider `FC(F)(F)Oc1cccc(-c2nnc(SCc3ccccc3)o2)c1`, for which the concentration for an effect of 90% (IC90) was 250 µM.

With `COc1ccccc1-c1nnc(SCc2ccccc2)o1`, the IC90 was 250 µM.

Turning to `Fc1cccc(CSc2nnc(-c3ccccc3)o2)c1`, the 90% effect concentration (IC90) is 250 µM.

Turning to `c1ccc(CSc2nnc(-c3cccs3)o2)cc1`, the IC90 was 250 µM.

Take `COc1cccc(CSc2nnc(-c3ccccc3)o2)c1`: the IC90 was 250 µM.

For `CC(C)c1nnc(SCc2ccccc2)o1`, the IC90 was 250 µM.

Turning to `COCCOCCSc1nnc(-c2ccccc2)o1`, the IC90 was 250 µM.

Turning to `c1ccc(CSc2nnc(-c3cccnc3)o2)cc1`, the IC90 was 250 µM.

For `c1ccc(CSc2nnc(C3CCCC3)o2)cc1`, the IC90 was 250 µM.

In the case of `FC(F)(F)c1cccc(CSc2nnc(-c3ccccc3)o2)c1`, the IC90 is 250 µM.

Take `c1ccc(CSc2nnc(-c3ccccc3)o2)cc1`: the IC90 is 125 µM.
